Measured values from PMC6001238, “Iterative Chemical Engineering of Vancomycin Leads to Novel Vancomycin Analogs With a High in Vitro Therapeutic Index” (Frontiers in Microbiology, 2018).
≈ marks a conversion by molar mass, not a printed value. Like-named read-outs stand apart in the source and are kept apart here.

Assays:
E. coli XL-1 blue MRF' = experiment: MIC, broth microdilution, E. coli XL-1 blue MRF'; type: cell-based, Escherichia coli; conditions: E. coli XL-1 blue MRF'; for MICvanc/MICi: ratio of MIC of vancomycin and MIC of analogue
Protocol: (§1) The minimum inhibitory concentration (MIC) was determined using the broth microdilution method according to the antimicrobial susceptibility testing standards of the clinical and laboratory standards institute ([Clinical and Laboratory Standards Institute [CLSI], 2012]). Ultrapure water and non-inoculated broth were used as controls. In one case, a final concentration of 10 μM vancomycin was included with the vancomycin analog or control antibiotic.

MRSA KS89 = experiment: MIC, broth microdilution, MRSA KS89; type: cell-based, Staphylococcus aureus; conditions: for MIC-fold improvement vs. vancomycin: MRSA KS8, ratio of MIC of vancomycin and MIC of analogue; for MIC: Staphylococcus aureus MRSA KS8, read-out: MIC
Outline: (§2)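 Assayed by broth microdilution under CLSI antimicrobial testing rules. One case paired the analog or control drug with vancomycin at a 10 μM final concentration; water and inoculum-free broth were controls.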

[1] = system: human T-lymphocyte (CEM) cells; experiment: Cytostatic activity, CEM cell proliferation; type: cell-based; conditions: mean ± SD of three experiments; highest concentration tested 250 µM; 3 days; read-out: Toxicity (IC50) CEM
Outline: (§3)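 Readout: Coulter cell number after drug exposure at 37°C. Durations differ by line (L1210 2 days; CEM 3 days; HeLa 4 days). Stock suspension 300,000–500,000 cells/mL, diluted by mixing with compound. Endpoint: IC50 vs negative control.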

MRSA KS2 = experiment: MIC, broth microdilution, MRSA KS2; type: cell-based, Staphylococcus aureus; conditions: for MIC-fold improvement vs. vancomycin: MRSA KS2, ratio of MIC of vancomycin and MIC of analogue; for MIC: Staphylococcus aureus MRSA KS2, read-out: MIC
Outline: as §2

[2] = system: S. aureus VSSA (ATCC 6538); experiment: MIC, broth microdilution, vancomycin-sensitive S. aureus (VSSA/MSSA, ATCC 6538); type: cell-based, Staphylococcus aureus; conditions: for MIC: Staphylococcus aureus VSSA, read-out: MIC; for MIC-fold improvement vs. vancomycin: VSSA, ratio of MIC of vancomycin and MIC of analogue
Outline: as §2

E. faecalis VRE 53 = experiment: MIC, broth microdilution, vancomycin-resistant E. faecalis VRE 53 (VanA); type: cell-based, Enterococcus faecalis; conditions: for MICvanc/MICi / MIC-fold improvement vs. vancomycin: ratio of MIC of vancomycin and MIC of analogue; for MIC: read-out: MIC; for MIC-fold improvement vs. vancomycin: VRE 53
Outline: as §2

S. aureus VISA/HIP5827 = experiment: MIC, broth microdilution, vancomycin-intermediate S. aureus VISA HIP5827; type: cell-based, Staphylococcus aureus; conditions: for MIC: Staphylococcus aureus VISA/HIP5827, read-out: MIC; for MIC-fold improvement vs. vancomycin: VISA/HIP5827, ratio of MIC of vancomycin and MIC of analogue
Outline: as §2

[3] = system: L1210, CEM and HeLa cell lines; experiment: Cytostatic activity, average or summary over L1210, CEM and HeLa; type: cell-based; conditions: average of L1210, CEM and HeLa; read-out: Toxicity (IC50) Average
Outline: as §3

MRSA KS6 = experiment: MIC, broth microdilution, MRSA KS6; type: cell-based, Staphylococcus aureus; conditions: for MIC-fold improvement vs. vancomycin: MRSA KS6, ratio of MIC of vancomycin and MIC of analogue; for MIC: Staphylococcus aureus MRSA KS6, read-out: MIC
Outline: as §2

[4] = system: human cervix carcinoma (HeLa) cells; experiment: Cytostatic activity, HeLa cell proliferation; type: cell-based; conditions: mean ± SD of three experiments; highest concentration tested 250 µM; 4 days; read-out: Toxicity (IC50) HeLa
Outline: as §3

E. faecalis VRE 6 = experiment: MIC, broth microdilution, vancomycin-resistant E. faecalis VRE 6 (VanA); type: cell-based, Enterococcus faecalis; conditions: for MIC: read-out: MIC
Outline: as §2

[5] = system: Murine leukemia (L1210) cells; experiment: Cytostatic activity, L1210 cell proliferation; type: cell-based; conditions: mean ± SD of three experiments; highest concentration tested 250 µM; 2 days; read-out: Toxicity (IC50) L1210
Outline: as §3

S. aureus VRSA = experiment: MIC, broth microdilution, vancomycin-resistant S. aureus (VRSA); type: cell-based, Staphylococcus aureus; conditions: for MIC: Staphylococcus aureus VRSA, read-out: MIC; for MIC-fold improvement vs. vancomycin: VRSA, ratio of MIC of vancomycin and MIC of analogue
Outline: as §2

E. faecalis VRE 37 = experiment: MIC, broth microdilution, vancomycin-resistant E. faecalis VRE 37 (VanA); type: cell-based, Enterococcus faecalis; conditions: for MIC: Enterococcus faecalis VRE 37 (vancomycin-resistant), read-out: MIC
Outline: as §2

E. faecalis VRE 29 = experiment: MIC, broth microdilution, vancomycin-resistant E. faecalis VRE 29 (VanA); type: cell-based, Enterococcus faecalis; conditions: for MIC: Enterococcus faecalis VRE 29 (vancomycin-resistant), read-out: MIC; for MIC-fold improvement vs. vancomycin: VRE 29, ratio of MIC of vancomycin and MIC of analogue
Outline: as §2

B. subtilis PSB3 = experiment: MIC, broth microdilution, B. subtilis PSB3; type: cell-based, Bacillus subtilis; conditions: for MICvanc/MICi: ratio of MIC of vancomycin and MIC of analogue
Protocol: as §1

MRSA KS1 = experiment: MIC, broth microdilution, MRSA KS1; type: cell-based, Staphylococcus aureus; conditions: for MIC-fold improvement vs. vancomycin: MRSA KS1, ratio of MIC of vancomycin and MIC of analogue; for MIC: Staphylococcus aureus MRSA KS1, read-out: MIC
Outline: as §2

E. faecalis VSE 1 = experiment: MIC, broth microdilution, vancomycin-sensitive E. faecalis (VSE 1); type: cell-based, Enterococcus faecalis; conditions: for MICvanc/MICi / MIC-fold improvement vs. vancomycin: ratio of MIC of vancomycin and MIC of analogue; for MIC: read-out: MIC; for MIC-fold improvement vs. vancomycin: VSE 1
Outline: as §2

[6] = Enterococcus faecalis VRE 53 (vancomycin-resistant)
[7] = E. faecalis VRE 6, ratio of MIC of vancomycin and MIC of analogue
[8] = Enterococcus faecalis VRE 6 (vancomycin-resistant)
[9] = Enterococcus faecalis VSE 1 (vancomycin-sensitive)

| Structure (SMILES) | MIC (E. coli XL-1 blue MRF') [µM] | MICvanc/MICi (E. coli XL-1 blue MRF') | MIC-fold improvement vs. vancomycin (MRSA KS89) | MIC (MRSA KS89) [µM] | IC50 [1] [µM] | MIC-fold improvement vs. vancomycin (MRSA KS2) | MIC (MRSA KS2) [µM] | MIC [2] [µM] | MIC-fold improvement vs. vancomycin [2] | MICvanc/MICi (E. faecalis VRE 53; E. faecalis VRE 53) | MIC (E. faecalis VRE 53; E. faecalis VRE 53) [µM] | MIC (E. faecalis VRE 53; [6]) [µM] | MIC-fold improvement vs. vancomycin (E. faecalis VRE 53) | MIC (S. aureus VISA/HIP5827) [µM] | MIC-fold improvement vs. vancomycin (S. aureus VISA/HIP5827) | IC50 [3] [µM] | MIC-fold improvement vs. vancomycin (MRSA KS6) | MIC (MRSA KS6) [µM] | IC50 [4] [µM] | MICvanc/MICi (E. faecalis VRE 6; [7]) | other results |
| --- | --- | --- | --- | --- | --- | --- | --- | --- | --- | --- | --- | --- | --- | --- | --- | --- | --- | --- | --- | --- | --- |
| C#Cc1ccc(C=Cc2ccc(NC(=O)CNC(=O)C3NC(=O)C4NC(=O)C(NC(=O)C5NC(=O)C(CC(N)=O)NC(=O)C(NC(=O)C(CC(C)C)NC)C(O)c6ccc(c(Cl)c6)Oc6cc5cc(c6OC5OC(CO)C(O)C(O)C5OC5CC(C)(N)C(O)C(C)O5)Oc5ccc(cc5Cl)C4O)c4ccc(O)c(c4)-c4c(O)cc(O)cc43)cc2)cc1 (centres unmarked) [Vanc-R] | 100 (≈ 171 µg/mL) | 1 | 2 | 0.39 (≈ 0.666 µg/mL) | 1.4 ± 0.6 | 2 | 0.39 (≈ 0.666 µg/mL) | 0.10 (≈ 0.171 µg/mL) | 8 | 64 | 6.25 (≈ 10.7 µg/mL) | 6.25 (≈ 10.7 µg/mL) | 64 | 0.78 (≈ 1.33 µg/mL) | 8 | 7 | 2 | 0.39 (≈ 0.666 µg/mL) | 15 ± 1 | 64 | MIC (E. faecalis VRE 6; E. faecalis VRE 6): 3.13 µM (≈ 5.34 µg/mL); MIC (E. faecalis VRE 6; [8]): 3.13 µM (≈ 5.34 µg/mL); IC50 [5]: 5.7 ± 0.7 µM; MIC (S. aureus VRSA): 1.56 µM (≈ 2.66 µg/mL); MIC-fold improvement vs. vancomycin (S. aureus VRSA): 64; MIC (E. faecalis VRE 37): 12.5 µM (≈ 21.3 µg/mL); MIC-fold improvement vs. vancomycin (E. faecalis VRE 37; VRE 37, ratio of MIC of vancomycin and MIC of analogue): 64; MIC (E. faecalis VRE 29): 1.56 µM (≈ 2.66 µg/mL); MIC-fold improvement vs. vancomycin (E. faecalis VRE 29): 256; MIC (B. subtilis PSB3): 0.78 µM (≈ 1.33 µg/mL); MICvanc/MICi (B. subtilis PSB3): 0.5; MIC-fold improvement vs. vancomycin (MRSA KS1): 1; MIC (MRSA KS1): 0.78 µM (≈ 1.33 µg/mL); MICvanc/MICi (E. faecalis VSE 1; E. faecalis VSE 1): 8; MIC (E. faecalis VSE 1; E. faecalis VSE 1): 0.20 µM (≈ 0.342 µg/mL); MIC (E. faecalis VSE 1; [9]): 0.19 µM (≈ 0.324 µg/mL); MIC-fold improvement vs. vancomycin (E. faecalis VSE 1): 8 |
| C#Cc1ccc(-c2ccc(C(=O)NCCCNC(=O)[C@H]3NC(=O)[C@H]4NC(=O)[C@H](NC(=O)[C@@H]5NC(=O)[C@H](CC(N)=O)NC(=O)[C@H](NC(=O)[C@@H](CC(C)C)NC)[C@H](O)c6ccc(c(Cl)c6)Oc6cc5cc(c6O[C@@H]5O[C@H](CO)[C@@H](O)[C@H](O)[C@H]5O[C@H]5C[C@](C)(N)[C@H](O)[C@H](C)O5)Oc5ccc(cc5Cl)[C@H]4O)c4ccc(O)c(c4)-c4c(O)cc(O)cc43)cc2)cc1 [Vanc-S] | 50 (≈ 85.5 µg/mL) | 2 | 4 | 0.20 (≈ 0.342 µg/mL) | 5.6 ± 1.1 | 4 | 0.20 (≈ 0.342 µg/mL) | 0.10 (≈ 0.171 µg/mL) | 8 | 128 | 3.13 (≈ 5.35 µg/mL) | 3.13 (≈ 5.35 µg/mL) | 128 | 0.39 (≈ 0.667 µg/mL) | 16 | 29 | 2 | 0.39 (≈ 0.667 µg/mL) | 70 ± 8 | 256 | MIC (E. faecalis VRE 6; E. faecalis VRE 6): 0.78 µM (≈ 1.33 µg/mL); MIC (E. faecalis VRE 6; [8]): 0.78 µM (≈ 1.33 µg/mL); MIC-fold improvement vs. vancomycin (E. faecalis VRE 6; VRE 6, ratio of MIC of vancomycin and MIC of analogue): 256; IC50 [5]: 10 ± 4 µM; MIC (S. aureus VRSA): 0.78 µM (≈ 1.33 µg/mL); MIC-fold improvement vs. vancomycin (S. aureus VRSA): 128; MIC (E. faecalis VRE 37): 25 µM (≈ 42.7 µg/mL); MIC (E. faecalis VRE 29): 6.25 µM (≈ 10.7 µg/mL); MIC-fold improvement vs. vancomycin (E. faecalis VRE 29): 64; MIC (B. subtilis PSB3): 0.20 µM (≈ 0.342 µg/mL); MICvanc/MICi (B. subtilis PSB3): 2; MIC-fold improvement vs. vancomycin (MRSA KS1): >8; MIC (MRSA KS1): <0.10 µM; MICvanc/MICi (E. faecalis VSE 1; E. faecalis VSE 1): 64; MIC (E. faecalis VSE 1; E. faecalis VSE 1): 0.03 µM (≈ 0.0513 µg/mL); MIC (E. faecalis VSE 1; [9]): 0.03 µM (≈ 0.0513 µg/mL); MIC-fold improvement vs. vancomycin (E. faecalis VSE 1): 64 |
